This passage reports GI50 and TGI results from PubChem BioAssay (NCI).

The structures appear in SMILES notation.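 In this assay, cells in 96-well plates receive the compound at five concentrations for 48 hours. Endpoints are linearly interpolated between the surrounding concentrations. GI50 is the concentration that inhibits growth by half. TGI marks complete inhibition of growth.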 Bounds are passed on as bounds.

This assay has as its system MDA-MB-468 breast. The assay can be described thus: NCI-60 cell line screen, 48 h.
On to `Cc1cncc2cccc(S(=O)(=O)N3CCCNC[C@@H]3C)c12`, for which the GI50 is 19000 nM and the TGI was over 91100 nM.

For the compound `O=C(Nc1ccc(Oc2cccc(Cl)c2)c(Cl)c1)c1cccnc1`, the GI50 was 565 nM and the TGI amounted to 4150 nM.

For the compound `Cn1cc(C2=C(c3cn(C)c4cc(Cl)ccc34)C(=O)NC2=O)c2ccccc21`, the GI50 is 74.4 nM and the TGI was found to be 5960 nM.

Regarding `N#CCCCCCn1c2ccccc2c2c3c(c4c5ccccc5[nH]c4c21)C(=O)N(O)C3=O`, the GI50 is 1480 nM and the TGI came out at 5980 nM.

As for `Cc1cc2nc3c4cc(Cl)ccc4n(CC(=O)NCCN(C)C)c3nc2cc1C`, the GI50 was 11300 nM and the TGI stood at 23800 nM.

As to `CCc1cc(Nc2nccc(-c3c(-c4ccc(OC)c(C(=O)Nc5c(F)cccc5F)c4)nc4ccccn34)n2)c(OC)cc1N1CCC(N2CCN(S(C)(=O)=O)CC2)CC1`, the GI50 is over 82700 nM and the TGI is over 100000 nM.

`Nc1ccc(Sc2ccc3c4c2cccc4c(=O)n2c4ccccc4nc32)cc1`: the GI50 is 3190 nM and the TGI was 20800 nM.

Take `CN1CCN(Cc2ccc(NC(=O)c3cncc(C#Cc4cncc5[nH]ncc45)c3)cc2C(F)(F)F)CC1`: the GI50 was 1080 nM and the TGI is 4080 nM.

With `O=C(Nc1ccc(I)cc1F)c1cc(F)ccc1O`, the GI50 was 898 nM and the TGI stood at 5300 nM.

For the compound `CCN1CCN(c2nc(NNC(=O)c3cccc(OC)c3)nc(N3CCN(C(c4ccccc4)c4ccccc4)CC3)n2)CC1`, the GI50 is 1910 nM and the TGI was 4920 nM.

For the compound `Cc1ccc(/C=C2\CN(C(=O)CCN3CCC(=NO)CC3)C/C(=C\c3ccc(C)cc3)C2=O)cc1`, the GI50 is 1460 nM and the TGI is 3460 nM.

Take `O=C(CN1CCN(c2cc3c(cc2F)c(=O)c(C(=O)O)cn3C2CC2)CC1)Nc1ccc(C(=O)/C=C/c2ccccc2)cc1`: the GI50 was 2450 nM and the TGI worked out at 23200 nM.

For `CCN(CC)Cc1cc(Nc2c3ccc(Cl)cc3nc3c(C)cccc23)ccc1O`, the GI50 was 1370 nM and the TGI was 2830 nM.

In the case of `Cn1cc(C2=C(c3cccc(Cl)c3)C(=O)NC2=O)c2ccccc21`, the GI50 is 4480 nM and the TGI worked out at 24600 nM.

As to `Cn1ccnc1C(=O)/C=C/c1ccc(CC(=O)Nc2cc(F)c(F)c(F)c2)cc1`, the GI50 is 636 nM and the TGI is 1960 nM.

For `Clc1ccc2c(NCCNc3nc(Cl)nc4ccccc34)ccnc2c1`, the GI50 is 583 nM and the TGI worked out at 2030 nM.

In the case of `c1ccc(-c2nn(-c3ccccc3)[n+](-c3ccccc3-c3ccccc3)n2)cc1`, the GI50 was 189 nM and the TGI is 923 nM.

For `COc1ccc(C(=O)C(CN(C)C)c2ccccc2)cc1` (stereo not drawn), the GI50 was 1930 nM and the TGI is 4960 nM.

For the compound `O=C(c1nc2ccccc2[nH]1)C1C(c2cccc([N+](=O)[O-])c2)C2CC3CCCCC3N2[C@@]12C(=O)Nc1cc(Cl)ccc12` (stereo partly drawn), the GI50 is 1390 nM and the TGI amounted to 4000 nM.

`CCCCOc1nc2ccccc2cc1C1CNC(=O)c2ccccc2N1` (stereo not drawn): the GI50 is 2030 nM and the TGI stood at 9560 nM.

Consider `COc1ccc(C2C3=C(COC3=O)N(CCO)c3cc4c(cc32)CCC4)cc1OC` (stereo not drawn), for which the GI50 is 184 nM.

With `Fc1ccc(-c2ncn(C3CCNCC3)c2-c2ccnc(Oc3ccc(Oc4ccccc4)cc3)n2)cc1`, the GI50 was 1940 nM and the TGI was found to be 5570 nM.

Consider `Cn1cc(-c2nnc(N)nc2-c2c[nH]c3ccc(F)cc23)c2cc(Br)ccc21`, for which the GI50 is 1240 nM and the TGI was determined as 7750 nM.

As for `CCN(CC)c1ccc(/C=C2/NC(=O)NC2=O)cc1`, the GI50 is 981 nM and the TGI was 7840 nM.

Consider `COc1ccc(Nc2ccnc3cc(Cl)ccc23)cc1CN(CCCl)CCCl`, for which the GI50 was 195 nM and the TGI was found to be 840 nM.

As for `Nc1cc2ccncc2c2ccccc12`, the GI50 is 12300 nM and the TGI was 36500 nM.

`Cc1cccc(Cc2cnc(NC(=O)/C=C/c3ccco3)s2)c1`: the GI50 is 40.7 nM and the TGI was found to be 13200 nM.
